Data: patent US8097722B2 (priority 2008, dated 2012)
Read-outs that look alike come from different tables or passages of the source. Peptide text beside a SMILES is read from it. * marks the point of attachment. MeOSuc = COC(=O)CCC(=O)*; CH2Cl = ClC*

Tests used:
Purified PMPMEase = molecular target: T1, Purified PMPMEase (Sus scrofa, UniProt Q29550); assay type: biochemical, porcine
T1 construct: from tissue; host or cells: porcine liver supernatant, purified by column chromatography
T1 sequence (Q29550 19-566): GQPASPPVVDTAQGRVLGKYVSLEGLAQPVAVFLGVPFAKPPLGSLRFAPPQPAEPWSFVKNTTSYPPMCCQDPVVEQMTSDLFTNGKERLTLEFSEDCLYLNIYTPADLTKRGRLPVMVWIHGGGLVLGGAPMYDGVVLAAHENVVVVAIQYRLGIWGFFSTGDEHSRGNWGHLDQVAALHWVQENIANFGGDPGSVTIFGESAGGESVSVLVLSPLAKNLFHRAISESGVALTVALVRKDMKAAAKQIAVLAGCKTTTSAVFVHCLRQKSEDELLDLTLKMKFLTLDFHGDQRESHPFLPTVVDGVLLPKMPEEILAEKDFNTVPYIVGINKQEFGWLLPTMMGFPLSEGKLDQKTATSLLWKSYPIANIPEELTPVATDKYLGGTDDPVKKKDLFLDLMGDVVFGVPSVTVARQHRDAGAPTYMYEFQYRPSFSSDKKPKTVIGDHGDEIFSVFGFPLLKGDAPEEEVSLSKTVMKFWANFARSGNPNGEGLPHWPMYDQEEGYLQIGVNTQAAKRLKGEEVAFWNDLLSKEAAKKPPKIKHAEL

porcine liver PMPMEase = molecular target: T2, porcine liver PMPMEase (Sus scrofa, UniProt Q29550); experiment: PMPMEase inhibition assay of PMSF, GESF and FESF (IC50); assay type: biochemical; details: for increase in potency relative to PMSF: ratio of IC50 values vs PMSF
T2 construct: the supernatant fraction was prepared from 100 g of porcine liver; from tissue; host or cells: porcine liver 40,000×g supernatant
T2 sequence (Q29550 19-566): T1 sequence (Q29550 19-566)

[1] = Aqueous solubility (statement); assay type: physicochemical
liver PMPMEase = assay type: biochemical, porcine
brain PMPMEase = assay type: biochemical, porcine
[2] = 0.01 mM compound, 20 min preincubation at 37° C., HCFCM 1 mM
[3] = 1 mM compound, 20 min preincubation at 37° C., HCFCM 1 mM

O=C(C(=O)c1ccccc1)c1ccccc1 [Benzil]
Residual activity (% of Control, SEM, n = 3) 0.1 mM (Purified PMPMEase): *69.4 ± 0.24 % of Control | Residual activity (% of Control, SEM, n = 3) 1 mM (Purified PMPMEase): 38.0 ± .43 % of Control

NC(=O)OCc1ccccc1 [Benzyl carbamate]
Residual activity (% of Control, SEM, n = 3) 0.01 mM (Purified PMPMEase): 117 ± 11 % of Control | Residual activity (% of Control, SEM, n = 3) 1 mM (Purified PMPMEase): 124 ± 5 % of Control

CCC(C)C(O)C(C)C(=O)C(C)/C=C(\C)CC(C)C1OC(=O)C1C (centres unmarked) [Ebelactone A]
Residual activity (% of Control, SEM, n = 3) 0.01 mM (Purified PMPMEase): 123 ± 7 % of Control | Residual activity (% of Control, SEM, n = 3) 1 mM (Purified PMPMEase): 18.3 ± 0.3 % of Control

CCC(C)C(O)C(C)C(=O)C(C)/C=C(\C)CC(C)C1OC(=O)C1CC (centres unmarked) [Ebelactone B]
Residual activity (% of Control, SEM, n = 3) 0.01 mM (Purified PMPMEase): 56.4 ± 1.0 % of Control | Residual activity (% of Control, SEM, n = 3) 1 mM (Purified PMPMEase): 0 ± 0 % of Control

CC(C)=CCC/C(C)=C/CC/C(C)=C/CSCCS(=O)(=O)F [FESF, S-trans,trans-farnesyl-2-thioethanesulfonyl fluoride]
IC50 (porcine liver PMPMEase): 37 ± 0.42 nM | increase in potency relative to PMSF (porcine liver PMPMEase): > 440 fold | aqueous solubility [1]: not aqueous-soluble

CC(C)=CCC/C(C)=C/CSCCS(=O)(=O)F [GESF, S-trans-geranyl-2-thioethanesulfonyl fluoride]
IC50 (porcine liver PMPMEase): 169 ± 6.8 nM | increase in potency relative to PMSF (porcine liver PMPMEase): over 97 fold | aqueous solubility [1]: not aqueous-soluble

CC(C)=CCC/C(C)=C/CC/C(C)=C/CC/C(C)=C/CS(=O)(=O)F [GGESF, S-geranylgeranyl sulfonyl fluoride]
higher potency than FESF (concluded from the data, not tested) (porcine liver PMPMEase; predicted vs FESF): 2 fold

CC(C)CC(N)C(=O)CCl [L-Leu chloromethyl ketone (CMK)]
Residual activity (% of Control, SEM, n = 3) 0.01 mM (Purified PMPMEase): 93.3 ± 1.0 % of Control | Residual activity (% of Control, SEM, n = 3) 1 mM (Purified PMPMEase): 60.4 ± 1.9 % of Control

COC(=O)CCC(=O)N[C@@H](C)C(=O)N[C@@H](C)C(=O)N1CCC[C@H]1C(=O)N[C@H](C(=O)CCl)C(C)C [N- (methoxysuccinyl)-L- Ala-L-Ala-L-Pro-L- Val CMK] (MeOSuc-AAPV-CH2Cl)
Residual activity (% of Control, SEM, n = 3) 0.01 mM (Purified PMPMEase; [2]): 105 ± 3.1 % of Control | Residual activity (% of Control, SEM, n = 3) 1 mM (Purified PMPMEase; [3]): 61.8 ± 2.0 % of Control

O=C(N[C@@H](Cc1ccccc1)C(=O)CCl)OCc1ccccc1 [N-carbobenzyloxy-L- Phe CMK]
Residual activity (% of Control, SEM, n = 3) 0.01 mM (Purified PMPMEase): 94.8 ± 1.3 % of Control | Residual activity (% of Control, SEM, n = 3) 1 mM (Purified PMPMEase): 57.0 ± 2.0 % of Control

Cc1ccc(S(=O)(=O)N[C@@H](CCCCN)C(=O)CCl)cc1 [Nα-tosyl-L-Lys CMK]
Residual activity (% of Control, SEM, n = 3) 0.01 mM (Purified PMPMEase): 98.3 ± 1.9 % of Control | Residual activity (% of Control, SEM, n = 3) 1 mM (Purified PMPMEase): 98.6 ± 7.3 % of Control

CCOP(=O)(OCC)Oc1ccc([N+](=O)[O-])cc1 [Paraoxon]
Liver Mean (mean percent inhibition relative to the controls) (liver PMPMEase): 100% | Residual activity (% of Control, SEM, n = 3) 0.01 mM (Purified PMPMEase; [2]): 0 ± 0 % of Control | Residual activity (% of Control, SEM, n = 3) 1 mM (Purified PMPMEase; [3]): 0 ± 0 % of Control | Brain Mean (mean percent inhibition relative to the controls) (brain PMPMEase): 87%

O=S(=O)(F)Cc1ccccc1 [Phenylmethylsulfonyl fluoride, phenylmethylsulfonyl fluoride]
Residual activity (% of Control, SEM, n = 3) 0.01 mM (Purified PMPMEase; [2]): 79.5 ± 1.8 % of Control | Residual activity (% of Control, SEM, n = 3) 1 mM (Purified PMPMEase; [3]): 0 ± 0 % of Control
